Key:
[1] = Lipophilicity, log P of the compound; assay type: physicochemical; settings: octanol/water
[2] = tested on: Vigna radiata var. radiata; experiment: Herbicidal activity against Vigna radiata var. radiata assessed per 100 m'2 after 10 days by greenhouse pot test; assay type: functional

Row | SMILES | logP [1] | pLD50 [2]
1 | Cc1ccc(NC(=O)N(C)C)cc1 | 1.41 | 1.21
2 | CN(C)C(=O)Nc1ccc([N+](=O)[O-])cc1 | 1.43 | <0.4
3 | CN(C)C(=O)Nc1cccc([N+](=O)[O-])c1 | 1.33 | <0.4
4 | CN(C)C(=O)Nc1ccc(C#N)cc1 | 0.97 | 0.63
5 | CN(C)C(=O)Nc1ccc(I)cc1 | 2.36 | 1.75
6 | CC(C)c1ccc(NC(=O)N(C)C)cc1 [ISOPROTURON] | 2.87 | 1.92
7 | CN(C)C(=O)Nc1ccc(F)cc1 | 1.13 | 1.67
8 | CN(C)C(=O)Nc1cccc(C(F)(F)F)c1 [FLUOMETURON] | 2.2 | 1.3
9 | CN(C)C(=O)Nc1ccc(O)cc1 | 0.37 | <0.4
10 | CN(C)C(=O)Nc1ccccc1 [FENURON] |  | 1.54
11 | Cc1cccc(NC(=O)N(C)C)c1 | 1.46 | 
12 | CN(C)C(=O)Nc1cccc(O)c1 |  | <0.4
13 | CN(C)C(=O)Nc1cccc(F)c1 | 1.37 | 1.76
14 | COc1ccc(NC(=O)N(C)C)cc1 | 1.02 | 1.61
15 | CN(C)C(=O)Nc1ccc(C(F)(F)F)cc1 | 2.31 | 1.45
16 | CN(C)C(=O)Nc1cccc(Cl)c1 | 2.33 | 2.16
17 | COc1cccc(NC(=O)N(C)C)c1 | 1.22 | 1.15
18 | CN(C)C(=O)Nc1ccc(Cl)cc1 [MONURON] | 1.99 | 2.01
19 | CN(C)C(=O)Nc1ccc(Cl)c(Cl)c1 [DCMU] |  | 2.75
20 | CN(C)C(=O)Nc1cccc(C#N)c1 | 0.98 | <0.4
21 | CN(C)C(=O)Nc1ccc(Br)cc1 | 2.07 | 1.86

Reference: ChEMBL document CHEMBL3044780, “Simple and Rapid Screening Method for Photosystem II Inhibitory Herbicides Using Photoautotrophically Cultured Plant Cells with Chlorophyll Fluorescence Monitoring” (Biosci Biotechnol Biochem, 1993)
